{"source": "ChEMBL document CHEMBL1201862", "about": "“PubChem BioAssay data set” (2004)", "key": {"[1]": {"tested_on": "Streptococcus sp. 'group A'", "test": "Streptococcus pyogenes SK(-)GAS viability under kanamycin – luminescence, BacTiterGlo, confirmation, counter-screen for streptokinase expression inhibitor project, dose response (AID 1900)", "format": "functional, organism-based"}, "[2]": {"target": "T1, Streptokinase A (Streptococcus pyogenes serotype M1, UniProt P10520)", "T1 sequence (P10520 whole entry)": "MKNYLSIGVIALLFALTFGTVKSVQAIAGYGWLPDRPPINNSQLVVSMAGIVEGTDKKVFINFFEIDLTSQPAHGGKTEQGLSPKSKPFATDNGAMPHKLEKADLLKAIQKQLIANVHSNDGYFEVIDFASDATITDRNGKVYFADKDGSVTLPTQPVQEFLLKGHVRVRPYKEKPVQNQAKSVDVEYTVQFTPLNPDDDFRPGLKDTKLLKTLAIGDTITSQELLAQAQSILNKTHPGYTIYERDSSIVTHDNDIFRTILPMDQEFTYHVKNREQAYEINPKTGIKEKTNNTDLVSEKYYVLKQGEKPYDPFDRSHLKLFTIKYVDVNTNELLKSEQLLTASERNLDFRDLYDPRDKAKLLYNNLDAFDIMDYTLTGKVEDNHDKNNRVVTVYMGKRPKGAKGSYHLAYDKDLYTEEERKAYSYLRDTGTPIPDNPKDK", "test": "viability-normalized secreted streptokinase activity reduction – plasminogen activation absorbance, OD405, dose response (AID 1914)", "format": "functional, Streptococcus pyogenes M1 GAS"}, "[3]": {"tested_on": "Streptococcus", "test": "GAS UMAA2166 growth inhibition – luminescence, BacTiterGlo, counter-screen for streptokinase expression inhibitor project, dose response (AID 1915);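 further: potency for reduction of bacterial viability or growth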", "format": "functional, organism-based"}, "[4]": {"target": "Paired box protein Pax-8 (Homo sapiens, UniProt Q06710)", "sequence (Q06710 whole entry)": "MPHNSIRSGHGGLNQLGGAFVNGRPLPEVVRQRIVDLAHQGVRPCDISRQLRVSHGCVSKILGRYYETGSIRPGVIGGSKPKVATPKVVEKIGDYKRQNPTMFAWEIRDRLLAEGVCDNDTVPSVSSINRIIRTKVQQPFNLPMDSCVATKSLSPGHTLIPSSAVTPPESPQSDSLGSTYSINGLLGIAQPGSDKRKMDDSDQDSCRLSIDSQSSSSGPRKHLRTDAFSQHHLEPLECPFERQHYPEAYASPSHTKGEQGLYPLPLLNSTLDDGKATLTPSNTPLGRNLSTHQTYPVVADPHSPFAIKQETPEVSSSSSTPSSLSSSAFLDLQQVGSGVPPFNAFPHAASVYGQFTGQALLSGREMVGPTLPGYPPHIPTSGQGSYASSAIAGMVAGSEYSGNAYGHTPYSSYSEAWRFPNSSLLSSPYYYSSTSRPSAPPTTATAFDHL", "test": "PAX8 transcriptional activity inhibition in RMG-I – RMG-I cells, luciferase, cherry-pick, dose response (AID 687027);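 further: luciferase reporter driven by Pax8 target thyroperoxidase promoter measured by SteadyGlo luminescence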", "format": "functional, cell-based"}, "[5]": {"target": "T2, Heat shock factor protein 1 (Mus musculus, UniProt P38532)", "T2 sequence (P38532 whole entry)": "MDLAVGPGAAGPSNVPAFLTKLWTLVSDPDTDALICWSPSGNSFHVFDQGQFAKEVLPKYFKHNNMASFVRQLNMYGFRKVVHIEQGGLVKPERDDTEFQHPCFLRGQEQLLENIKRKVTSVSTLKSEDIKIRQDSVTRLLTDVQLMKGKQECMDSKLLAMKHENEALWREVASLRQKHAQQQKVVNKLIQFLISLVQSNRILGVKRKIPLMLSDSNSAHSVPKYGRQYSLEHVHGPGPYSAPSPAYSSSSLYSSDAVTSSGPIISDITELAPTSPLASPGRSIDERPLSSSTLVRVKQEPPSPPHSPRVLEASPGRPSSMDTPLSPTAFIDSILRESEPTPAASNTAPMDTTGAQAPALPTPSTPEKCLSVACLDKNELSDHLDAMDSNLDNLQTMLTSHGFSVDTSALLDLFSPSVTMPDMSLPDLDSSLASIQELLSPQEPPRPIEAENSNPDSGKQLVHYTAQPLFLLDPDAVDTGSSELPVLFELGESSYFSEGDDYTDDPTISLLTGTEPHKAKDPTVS", "test": "enhancement of HSF1-driven luciferase signal – cell-based, NIH3T3, luminescence, dose retest, confirmation (AID 435004);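 further: stress induced by proteasome inhibitor MG132 added 30 min after compound; actives raise luminescence as potentiators of the MG132 stress response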", "format": "functional"}, "[6]": {"test": "NIH-3T3 fibroblast cytotoxicity, dose response, cytotoxicity control, cell-based, fluorescence, Alamar Blue, secondary assay (AID 2327);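 further: NIH-3T3 mouse fibroblasts cultured with fluconazole at 8 µg/mL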", "format": "functional"}, "[7]": {"test": "luciferase reporter signal suppression in cells – H4 neuroglioma cells, luminescence, dose response (AID 1990)", "format": "functional, cell-based"}, "[8]": {"test": "Luminescence Cell-Based Dose Response HTS to Identify Inhibitors of 5'UTR Stem-Loop Driven Prion Protein mRNA Translation in H4 Neuroglioblastoma Cells. [Related pubchem assays: 1827 (Project Summary), 1813 (Primary HTS)]", "format": "functional"}, "[9]": {"test": "alpha-synuclein stem-loop luciferase translation blockers – H4 neuroglioma cells, luminescence, confirmation (AID 1988)", "format": "functional, cell-based"}, "[10]": {"test": "fluconazole-exposed Candida albicans growth modulators – fluorescence, retest, confirmation (AID 2467)", "format": "functional, cell-based"}, "[11]": {"test": "Trypanosoma cruzi growth suppression in host cells – NIH3T3 host cells, beta-gal luminescence, confirmation (AID 2044);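 further: intracellular parasites grown in NIH/3T3 mouse fibroblasts as host cells; luminescent beta-galactosidase reporter signal from transgenic T. cruzi replicating inside host cells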", "format": "functional, cell-based"}, "[12]": {"test": "NIH3T3 cell viability loss – ATP luminescence, mouse fibroblasts, counter-screen, dose response (AID 2010);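 further: cells exposed to compound for about 90 hours before reading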", "format": "functional, cell-based"}, "[13]": {"tested_on": "SN12K1", "test": "cells", "format": "functional", "conditions": "Homo sapiens"}, "[14]": {"target": "Glyceraldehyde-3-phosphate dehydrogenase (Homo sapiens, UniProt P04406)", "sequence (P04406 whole entry)": "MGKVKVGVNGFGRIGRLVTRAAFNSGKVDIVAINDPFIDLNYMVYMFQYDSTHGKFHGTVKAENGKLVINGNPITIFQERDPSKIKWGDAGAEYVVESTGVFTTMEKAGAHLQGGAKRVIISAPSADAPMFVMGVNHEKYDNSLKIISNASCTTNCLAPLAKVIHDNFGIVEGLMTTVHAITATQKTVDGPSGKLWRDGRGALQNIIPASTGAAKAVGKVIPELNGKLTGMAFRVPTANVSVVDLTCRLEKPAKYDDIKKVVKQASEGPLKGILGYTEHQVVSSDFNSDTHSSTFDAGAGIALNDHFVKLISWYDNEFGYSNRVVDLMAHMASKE"}}, "note": "The source made the active and inactive calls. For most assays here, no stated cut-off is given here; in the data, actives have a measured EC50 and inactives only a lower limit."}
{"smiles": "Cc1ccc(-n2c(O)cc(=O)nc2SCC(=O)Nc2ccc3c4c(cccc24)CC3)cc1", "values": [{"measurement": "EC50", "setting": "[1]", "value": "28.4 µM (active)"}, {"measurement": "EC50", "setting": "[2]", "value": "> 150 µM (not active)"}, {"measurement": "EC50", "setting": "[3]", "value": "> 150 µM (not active)"}]}
{"smiles": "C[C@H](CO)N1C[C@H](C)[C@H](CN(C)Cc2ccc3c(c2)OCO3)OCCCC[C@H](C)Oc2ccc(NS(=O)(=O)c3ccc(Cl)cc3)cc2C1=O", "values": [{"measurement": "AC50", "setting": "[4]", "value": "9.86 µM (active)"}]}
{"smiles": "CC(C)[C@H](NC(N)=O)C(=O)NNC(=O)COc1cccc(C(F)(F)F)c1", "values": [{"measurement": "EC50", "setting": "[5]", "value": "> 260 µM (inactive)"}]}
{"smiles": "CC(=O)Nc1ncnc2c1c(-c1ccc(Cl)cc1)nn2C(C)(C)C", "values": [{"measurement": "EC50", "setting": "[6]", "value": "36.2 µM (active)"}, {"measurement": "EC50", "setting": "[7]", "value": "11.4 µM (active)"}, {"measurement": "EC50", "setting": "[8]", "value": "13.3 µM (active)"}, {"measurement": "EC50", "setting": "[9]", "value": "10.2 µM (active)"}, {"measurement": "EC50", "setting": "[10]", "value": "1.15 µM (active)"}, {"measurement": "EC50", "setting": "[11]", "value": "140 nM (active)"}, {"measurement": "EC50", "setting": "[12]", "value": "2.66 µM (active)"}]}
{"smiles": "COC(=O)c1cn(CCOc2ccc(C)cc2)c2ccccc12", "values": [{"measurement": "EC50", "setting": "[5]", "value": "> 260 µM (inactive)"}]}
{"smiles": "c1ccc(-c2csc3ncnc(N4CCc5ccccc5C4)c23)cc1", "values": [{"measurement": "EC50", "setting": "[1]", "value": "5.31 µM (active)"}, {"measurement": "EC50", "setting": "[2]", "value": "4.83 µM (active)"}, {"measurement": "EC50", "setting": "[3]", "value": "19.5 µM (active)"}]}
{"smiles": "CN(C)CCNC(=O)c1cccc2ccc(-c3ccc(O)cc3)nc12", "values": [{"measurement": "GI50", "setting": "[13]", "value": "637 nM (active)"}]}
{"smiles": "CCn1nc(C)cc1C(=O)Sc1ccc(Cl)cc1Cl", "values": [{"measurement": "EC50", "setting": "[5]", "value": "14.9 µM (active)"}]}
{"smiles": "COc1cccc(C(=O)COC(=O)C(C)N2C(=O)C3C4C=CC(C4)C3C2=O)c1", "note": "(centres undefined)", "values": [{"measurement": "EC50", "setting": "[5]", "value": "> 260 µM (inactive)"}]}
{"smiles": "FC(F)(F)c1cccc(NC(=S)N2CCCC2)c1", "values": [{"measurement": "EC50", "setting": "[1]", "value": "> 150 µM (not active)"}, {"measurement": "EC50", "setting": "[2]", "value": "> 150 µM (not active)"}, {"measurement": "EC50", "setting": "[3]", "value": "> 150 µM (not active)"}]}
{"smiles": "COc1cccc(N2C(=O)C(Cl)=C(N3CCOCC3)C2=O)c1", "values": [{"measurement": "IC50", "setting": "[14]", "value": "> 50 µM (inconclusive)"}]}
{"smiles": "O=C(O)c1ccc(-c2nc(-c3ccc(Cl)c(Cl)c3)cs2)cc1", "values": [{"measurement": "EC50", "setting": "[6]", "value": "> 160 µM (inactive)"}, {"measurement": "EC50", "setting": "[1]", "value": "3.54 µM (active)"}, {"measurement": "EC50", "setting": "[10]", "value": "3.35 µM (active)"}, {"measurement": "EC50", "setting": "[3]", "value": "6.62 µM (active)"}]}
{"smiles": "C=CCN(C(=O)CCc1ccccc1OC)c1nc(-c2ccc(S(C)(=O)=O)cc2)cs1", "values": [{"measurement": "EC50", "setting": "[11]", "value": "1930 nM (active)"}, {"measurement": "EC50", "setting": "[12]", "value": "5.05 µM (active)"}, {"measurement": "EC50", "setting": "[5]", "value": "> 260 µM (inactive)"}]}
{"smiles": "CN(Cc1ccccc1)C(=O)c1cc(-c2ccc(Br)cc2)on1", "values": [{"measurement": "EC50", "setting": "[5]", "value": "110 µM (active)"}]}
{"smiles": "C[C@@H]1CCCCO[C@H](CN(C)C(=O)c2ccccc2)[C@@H](C)CN([C@@H](C)CO)C(=O)c2cc(NC(=O)Nc3ccc(C(F)(F)F)cc3)ccc2O1", "values": [{"measurement": "AC50", "setting": "[4]", "value": "3.72 µM (active)"}]}
{"smiles": "Cc1ccc2c(O)nc(Nc3nc(C)cc(-c4ccccc4)n3)nc2c1", "values": [{"measurement": "EC50", "setting": "[1]", "value": "7.26 µM (active)"}, {"measurement": "EC50", "setting": "[2]", "value": "> 150 µM (not active)"}, {"measurement": "EC50", "setting": "[3]", "value": "5.49 µM (active)"}]}
{"smiles": "CCOC(=O)N1CCN(C(=O)c2cnc3n(c2=O)CCS3)CC1", "values": [{"measurement": "EC50", "setting": "[5]", "value": "> 260 µM (inactive)"}]}
{"smiles": "COc1ccc(CN(C)C[C@H]2Oc3ccc(NC(=O)Nc4ccc5c(c4)OCO5)cc3CC(=O)N([C@H](C)CO)C[C@H]2C)cc1", "values": [{"measurement": "AC50", "setting": "[4]", "value": "62.3 µM (active)"}]}
{"smiles": "Cc1ccc(N2NC(=O)/C(=C/c3c(C)c(C#N)c4nc5ccccc5n4c3O)C2=O)cc1C", "values": [{"measurement": "IC50", "setting": "[14]", "value": "> 100 µM (not active)"}]}
{"smiles": "CCCCOc1ccc(-c2nc(/C=N/c3nccs3)c(O)o2)cc1", "values": [{"measurement": "EC50", "setting": "[5]", "value": "> 260 µM (inactive)"}]}
{"smiles": "CN1C[C@@H]2[C@H](c3ccccc31)[C@H](CO)N2Cc1ccccc1Cl", "values": [{"measurement": "AC50", "setting": "[4]", "value": "50.5 µM (active)"}]}
{"smiles": "COc1cccc(-c2nnc(SCc3nc4ccccc4[nH]3)n2N)c1", "values": [{"measurement": "EC50", "setting": "[5]", "value": "> 260 µM (inactive)"}]}
{"smiles": "CCCc1nnc(N=C(S)Nc2ccccc2)s1", "values": [{"measurement": "EC50", "setting": "[6]", "value": "> 160 µM (inactive)"}, {"measurement": "EC50", "setting": "[10]", "value": "1.09 µM (active)"}]}
{"smiles": "COc1ccc(C)cc1S(=O)(=O)Nc1cnc2ccccc2c1", "values": [{"measurement": "IC50", "setting": "[14]", "value": "> 100 µM (not active)"}]}
{"smiles": "O=C1CC(C(=O)Nc2ccc(O)c(C(=O)O)c2)C(c2ccccc2)O1", "note": "(centres undefined)", "values": [{"measurement": "IC50", "setting": "[14]", "value": "> 100 µM (not active)"}]}
{"smiles": "O=C(CN1C(=O)NC(Cc2c[nH]c3ccccc23)C1=O)Nc1cccc(S(=O)(=O)N2CCOCC2)c1", "note": "(centres undefined)", "values": [{"measurement": "EC50", "setting": "[5]", "value": "> 260 µM (inactive)"}]}
{"smiles": "CCC(C)c1ccc(C2C3=C(O)c4ccccc4C3=Nc3nc(N)nc(O)c32)cc1", "note": "(centres undefined)", "values": [{"measurement": "EC50", "setting": "[1]", "value": "3.11 µM (active)"}, {"measurement": "EC50", "setting": "[2]", "value": "> 50 µM (not active)"}, {"measurement": "EC50", "setting": "[3]", "value": "8.57 µM (active)"}]}
